Experimental data: patent publication US10906876B2, “Tetrahydroisoquinolines as selective NADPH oxidase 2 inhibitors” (University of Pittsburgh—Of the Commonwealth System of …, priority 2013, dated 2021)

Key:
[1] = target: T1, Bovine milk XO (Bos taurus, UniProt P80457); assay: Xanthine oxidase assay (Amplex Red); type: biochemical; conditions: compounds at 25 μM and 50 μM (FIG. 4)
T1 construct: Bovine milk XO (grade 1, ammonium sulfate suspension; Sigma-Aldrich); purchased Sigma-Aldrich; host or cells: bovine milk
Procedure: Bovine milk XO (grade 1, ammonium sulfate suspension; Sigma-Aldrich) was first desalted using PD-10 columns (Sephadex G-25, GE Healthcare Biosciences, Piscataway, N.J.) equilibrated in PBS. XO activity was assayed by measuring H2O2 production using the Amplex® Red assay. Reaction mixture contained: 0.02 U/mL XO, 25 mM Hepes, pH 7.4, containing 0.12 M NaCl, 3 mM KCl, 1 mM MgCl2, 0.1 mM Amplex® Red, and 0.32 U/mL of horse radish peroxidase (HRP), reaction was initiated by addition of 1 mM hypoxanthine. Fluorescence was quantified over time using a Biotek Synergy 4 Hybrid Multi-Mode Microplate Reader.
Data are expressed as % of vehicle control.

[2] = test system: human fibroblasts; assay: PMA-stimulated ROS production by human fibroblasts; type: cell-based; conditions: 10 μM compound
Procedure: Cos-Nox2, Cos-Nox1, human fibroblasts were cultured in DMEM, 10% FBS-supplemented media, human pulmonary artery endothelial cells were cultured in EBM2media containing growth factors (Lonza) and rat neonatal cardiomyocytes were cultured in DMEM/F12 (50/50) media supplemented with 5% horse serum, 100 μM BrdU and Insulin-Transferrin-Selenium (ITS, Gibco).
Compounds 11g and 11h also were evaluated for potential inhibitory activity in phorbol ester (PMA)-stimulated ROS production by human fibroblasts. As expected PMA, an activator of protein kinase C, stimulated superoxide production. This effect was attenuated by both compounds at a concentration of 10 μM (FIG. 11).

[3] = target: T2, p47^phox association with Nox2 (cytochrome b558) (Homo sapiens, UniProt P14598); assay: Co-immunoprecipitation of Nox2/p47phox in Cos-Nox2 cells; type: cell-based; conditions: Cos-Nox2 cells pre-incubated with compound
T2 construct: expressed in transfected cells
T2 sequence (P14598 1-390): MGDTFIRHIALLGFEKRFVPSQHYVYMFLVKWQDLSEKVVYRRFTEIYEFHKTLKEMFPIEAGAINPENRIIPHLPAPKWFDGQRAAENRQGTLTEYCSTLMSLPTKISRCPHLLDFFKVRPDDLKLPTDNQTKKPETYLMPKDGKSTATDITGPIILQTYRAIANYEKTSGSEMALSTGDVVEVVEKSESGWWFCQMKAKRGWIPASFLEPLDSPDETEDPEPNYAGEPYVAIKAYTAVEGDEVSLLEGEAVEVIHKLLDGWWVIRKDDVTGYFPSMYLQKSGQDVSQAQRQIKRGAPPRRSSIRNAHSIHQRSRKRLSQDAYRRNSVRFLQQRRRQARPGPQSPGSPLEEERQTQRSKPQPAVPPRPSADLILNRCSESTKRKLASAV
Procedure: 300 μg of cell homogenates were diluted in 0.3 ml HBSS buffer and incubated with 1.25 μg of α-p47^phox antibody (Santa Cruz Biotechnology). After overnight incubation at 4° C. with constant agitation, 10 μl of Protein G-Agarose slurry were added to each sample to pull-down p47^phox: antibody complex. Beads were washed, boiled, run on PAGE-SDS gels and then blotted on nitrocellulose membrane. Western blot analysis was carried out using antibodies against p47^phox and Nox2. Bands were visualized using Odyssey software from Licor and then quantified using ImageJ software.
To interrogate a mode of Nox2 inhibition, in silico interaction analysis of pre-existing atomic structures was employed. […] To further investigate this type of interaction and inhibition, co-immunoprecipitation was used and p47^phox association with cytochrome b558 in Cos-Nox2 cells.

[4] = target: T3, Nox1 hybrid system (Homo sapiens, UniProt Q9Y5S8); assay: ROS production of transiently Nox1 hybrid system-transfected Cos cells treated with PMA; type: cell-based; conditions: 10 μM compound
T3 construct: Plasmids encoding full-length human cDNAs for Nox1 (pcDNA3.1-hNox1); expressed in transfected cells; host or cells: Cos cells, transient transfection
T3 sequence (Q9Y5S8 1-564): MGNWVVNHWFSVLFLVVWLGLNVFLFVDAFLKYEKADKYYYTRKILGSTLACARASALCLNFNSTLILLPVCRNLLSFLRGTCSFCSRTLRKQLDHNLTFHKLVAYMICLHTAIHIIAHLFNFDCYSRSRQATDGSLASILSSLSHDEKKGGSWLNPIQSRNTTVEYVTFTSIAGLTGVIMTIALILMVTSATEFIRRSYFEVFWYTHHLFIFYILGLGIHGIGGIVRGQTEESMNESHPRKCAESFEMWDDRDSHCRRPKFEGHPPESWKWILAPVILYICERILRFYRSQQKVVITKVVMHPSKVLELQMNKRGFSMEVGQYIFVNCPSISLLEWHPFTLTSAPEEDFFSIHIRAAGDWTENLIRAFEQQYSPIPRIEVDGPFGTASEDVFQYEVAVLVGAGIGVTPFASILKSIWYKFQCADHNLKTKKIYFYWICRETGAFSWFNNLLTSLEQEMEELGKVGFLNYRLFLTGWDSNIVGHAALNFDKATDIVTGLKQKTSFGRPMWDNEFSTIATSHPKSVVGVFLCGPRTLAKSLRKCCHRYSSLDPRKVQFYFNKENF
Procedure: Cell transfection was carried out using Lipofectamine LTX and Plus reagent (Invitrogen, Carlsbad, Calif., USA), according to the manufacturer's instructions. COS-22 cells were transiently co-transfected with pcDNA 3.1-hNox1, pCMVsport 6-hNOXA1 and pcDNA3.1-hNoxO1 (COS-Nox1/NOXO1/NOXA1 cells) or with pcDNA3.1/Hygro-hNox4 (COS-Nox4 cells). Cells were used 24 hr after transfection. Adherent cells were harvested by incubating with 0.05% trypsin/EDTA for 5 min at 37° C. Following addition of DMEM/10% FBS to neutralize the trypsin, the cells were pelleted by centrifugation at 1100×g for 5 min at 4° C. and used for the experiments.
Since p47^phox activation is important not only for Nox2 activity but also for Nox1 hybrid system present mainly in human endothelial cells, the effect of compounds 11g and 11h on ROS production of transiently Nox2-transfected (FIG. 13) or Nox1 hybrid system-transfected Cos cells (FIG. 14) treated with phorbol ester (PMA) was evaluated.

T1 sequence (P80457 whole entry): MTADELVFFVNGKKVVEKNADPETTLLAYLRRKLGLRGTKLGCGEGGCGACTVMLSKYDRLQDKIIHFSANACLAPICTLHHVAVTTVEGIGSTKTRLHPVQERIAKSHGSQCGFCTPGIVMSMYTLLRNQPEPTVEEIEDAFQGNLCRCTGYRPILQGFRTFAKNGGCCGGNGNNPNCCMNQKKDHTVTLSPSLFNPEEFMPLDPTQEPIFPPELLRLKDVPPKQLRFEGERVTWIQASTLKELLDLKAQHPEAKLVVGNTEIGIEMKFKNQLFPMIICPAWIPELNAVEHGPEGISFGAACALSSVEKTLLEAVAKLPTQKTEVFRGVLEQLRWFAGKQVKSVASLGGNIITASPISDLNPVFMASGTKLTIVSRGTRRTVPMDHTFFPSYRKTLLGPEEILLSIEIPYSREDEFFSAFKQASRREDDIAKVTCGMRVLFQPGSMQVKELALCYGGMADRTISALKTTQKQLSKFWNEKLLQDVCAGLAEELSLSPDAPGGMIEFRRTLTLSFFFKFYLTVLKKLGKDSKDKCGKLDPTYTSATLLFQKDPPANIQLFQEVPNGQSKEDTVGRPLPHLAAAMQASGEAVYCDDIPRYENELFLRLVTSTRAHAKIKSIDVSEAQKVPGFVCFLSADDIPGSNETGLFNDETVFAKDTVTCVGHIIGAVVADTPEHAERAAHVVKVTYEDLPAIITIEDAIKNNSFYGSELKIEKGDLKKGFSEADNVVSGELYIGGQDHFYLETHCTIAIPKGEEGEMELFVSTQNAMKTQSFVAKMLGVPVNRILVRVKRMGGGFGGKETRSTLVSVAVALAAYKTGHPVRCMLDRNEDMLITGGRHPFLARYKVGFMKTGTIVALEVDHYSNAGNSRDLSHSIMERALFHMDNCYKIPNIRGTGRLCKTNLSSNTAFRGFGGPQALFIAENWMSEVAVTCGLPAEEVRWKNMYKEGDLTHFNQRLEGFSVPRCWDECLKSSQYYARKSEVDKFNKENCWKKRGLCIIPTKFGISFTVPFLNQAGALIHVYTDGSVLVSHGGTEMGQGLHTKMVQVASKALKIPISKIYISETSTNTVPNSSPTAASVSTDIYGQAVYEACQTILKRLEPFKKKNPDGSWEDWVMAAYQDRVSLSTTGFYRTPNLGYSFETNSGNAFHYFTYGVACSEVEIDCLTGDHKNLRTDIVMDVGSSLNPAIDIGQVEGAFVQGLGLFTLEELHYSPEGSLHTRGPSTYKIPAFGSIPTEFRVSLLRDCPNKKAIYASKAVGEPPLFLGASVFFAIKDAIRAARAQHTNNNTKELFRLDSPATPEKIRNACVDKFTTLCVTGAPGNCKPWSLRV

| Effect on ROS production by xanthine oxidase [1] | Attenuation of PMA-promoted p47phox/Nox2 interaction (co-immunoprecipitation) [3] [%] | PMA-stimulated ROS production, Nox1 hybrid system-transfected Cos cells [4] | SMILES | PMA-stimulated superoxide production [2] |
| --- | --- | --- | --- | --- |
| virtually no effect | 34.3±6.07 | inhibited | C=C(C)CC1C2c3c(Br)cccc3C(CC2(C)C)N1CCCCC (racemic) [Compound 11g, (±)-(1S,4R,9S)-5-Bromo-3,3-dimethyl-9-(2-methylallyl-10-pentyl-1,2,3,4-tetrahydro-1,4-(epiminomethano)naphthalene] | attenuated |
| virtually no effect | 33.45±6.08 | did not significantly inhibit | C=C(C)CC1C2c3c(Br)cccc3C(CC2(C)C)N1Cc1cccs1 (racemic) [Compound 11h, (±)-(1S,4R,9S)-5-Bromo-3,3-dimethyl-9-(2-methylallyl)-10-(thiophen-2-ylmethyl)-1,2,3,4-tetrahydro-1,4-(epiminomethano)naphthalene] | attenuated |
